Measurements as given in PMC6838683, “Discovery of Human Signaling Systems: Pairing Peptides to G Protein-Coupled Receptors” (Cell, 2019).
Like-named read-outs stand apart in the source and are kept apart here. Each block holds one molecule with its values, some of them ahead of it. Residues, ends and D or L forms follow the SMILES beside them.

Key:
GPR1 [1] = target: T1, GPR1 (Homo sapiens, UniProt P46091); assay: β-arrestin recruitment (PathHunter); type: cell-based; settings: receptor GPR1; mean, SEM and n (2-3); read-out: b-arrestin recruitment assays (PathHunter) pEC50 (converted)
T1 sequence (P46091 1-355): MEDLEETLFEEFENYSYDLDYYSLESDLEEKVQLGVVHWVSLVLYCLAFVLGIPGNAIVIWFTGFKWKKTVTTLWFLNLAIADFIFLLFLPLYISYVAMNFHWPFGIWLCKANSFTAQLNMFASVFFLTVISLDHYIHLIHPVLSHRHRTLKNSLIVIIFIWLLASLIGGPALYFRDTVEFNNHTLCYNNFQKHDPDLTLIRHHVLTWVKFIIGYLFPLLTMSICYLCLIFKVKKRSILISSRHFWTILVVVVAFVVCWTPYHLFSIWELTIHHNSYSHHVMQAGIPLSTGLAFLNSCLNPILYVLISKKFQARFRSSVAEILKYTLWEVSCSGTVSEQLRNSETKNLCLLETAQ
Description: PathHunter eXpress Assays (DiscoverX) were performed in 384-well format according to the manufacturer’s recommendations. GPR1 cells were incubated with peptides for 90 min and luminescence measured using an EnSpire 2300 Multimode plate reader (PerkinElmer).

GPR1 [2] = target: T1, GPR1; assay: β-arrestin recruitment (Tango), validation; type: cell-based; set-up: host or cells: HTLA cells (HEK293-derived)
[3] = test system: 120 GPCR targets, including all available orphan receptors and 27 known class A peptide receptors; assay: Peptide library screen, β-arrestin recruitment (Tango, fold change, 10 μM); type: cell-based, human; settings: for Active at: (activity in b-arrestin recruitment assays): Tango, receptor(s) at which the known library peptide was active, among its known GPCR target(s), validated pairings; for Confirmation of known target in Tango: repeat hitters of the peptide library screen, the value names the known receptor(s) confirmed in the β-arrestin recruitment (Tango) screen
Description: The peptide library was additionally screened against 120 GPCR targets in parallel, including all available orphan receptors and 27 known class A peptide receptors using the Tango assay platform ([Kroeze et al., 2015]). Briefly, HTLA cells (a HEK293 cell line stably expressing a tTA-dependent luciferase reporter and a β-arrestin2-TEV fusion gene) were plated 10,000 cells/well in poly-L-lysine–coated clear-bottom white 384-well plates in DMEM supplemented with 10% FBS, 100 U/ml penicillin and 100 μg/ml streptomycin, 2 μg/ml puromycin and 100 μg/ml hygromycin B. 24 hr later, cells were transfected with Tango GPCR constructs using the calcium phosphate method ([Jordan et al., 1996]). The next day, culture medium was changed to DMEM + 1% dFBS and 10 μM peptides were added for overnight stimulation. Bright-Glo solution (Promega) was incubated for 15–20 min at room temperature, and luminescence was counted using a Trilux luminescence counter (Wallac).

human GPCRs = test system: human GPCRs; set-up: method as in Guide to Pharmacology database; settings: max reported value, ref Guide to Pharmacology database, cited from earlier work; for pEC50_value: receptor XCR1 (xcr1_human, P46094)
Text: Supplement mmc1.xlsx, sheet "HumanGPCRLigands" | column: pKi_value; pKd_value; pEC50_value; pIC50_value

[4] = receptor GPR1, mean, SEM and n (2-3), read-out: b-arrestin recruitment assays (Tango) pEC50 (converted)
[5] = receptor PROKR1 (pkr1_human, Q8TCW9)
[6] = receptor PROKR2 (pkr2_human, Q8NFJ6)

EC50 (GPR1 [1]): 661 nM
EC50 (GPR1 [2]; [4]): 5010 nM
Molecule: CC(C)C[C@H](NC(=O)[C@H](CCCNC(=N)N)NC(=O)[C@H](CC(=O)O)NC(=O)[C@H](CC(C)C)NC(=O)[C@@H]1CCCN1C(=O)[C@H](CO)NC(=O)CNC(=O)[C@H](Cc1ccccc1)NC(=O)CNC(=O)[C@H](CO)NC(=O)[C@H](Cc1ccccc1)NC(=O)[C@H](CO)NC(=O)[C@H](CCCNC(=N)N)NC(=O)[C@@H](N)CCCCN)C(=O)N[C@@H](CO)C(=O)N[C@@H](C)C(=O)NCC(=O)N[C@@H](CO)C(=O)N[C@H](C(=O)N[C@@H](CC(=O)O)C(=O)N[C@@H](Cc1c[nH]cn1)C(=O)N[C@@H](CCCCN)C(N)=O)C(C)C [141 resynthesized] (H-KRSFSGFGSPLDRLSAGSVDHK-NH2)

EC50 (GPR1 [1]): 9.77 nM
EC50 (GPR1 [2]; [4]): 5250 nM
Molecule: CC[C@H](C)[C@H](NC(=O)[C@H](CCCNC(=N)N)NC(=O)[C@H](Cc1c[nH]cn1)NC(=O)[C@H](CO)NC(=O)[C@@H]1CCCN1C(=O)[C@H](CC(=O)O)NC(=O)[C@H](CC(C)C)NC(=O)[C@H](CC(N)=O)NC(=O)[C@H](CCC(N)=O)NC(=O)[C@H](CC(C)C)NC(=O)[C@H](CC(N)=O)NC(=O)[C@H](CCCCN)NC(=O)[C@@H](NC(=O)[C@@H](NC(=O)[C@H](CO)NC(=O)[C@H](CCSC)NC(=O)[C@H](CCCNC(=N)N)NC(=O)CNC(=O)[C@H](CO)NC(=O)[C@@H]1CCCN1C(=O)[C@H](C)NC(=O)[C@@H](N)CCCCN)[C@@H](C)CC)C(C)C)C(=O)N[C@@H](CO)C(=O)N[C@@H](CC(=O)O)C(=O)N[C@@H](CCCNC(=N)N)C(=O)N[C@@H](CC(=O)O)C(=O)N[C@@H](Cc1ccc(O)cc1)C(=O)N[C@@H](CCSC)C(=O)NCC(=O)N[C@@H](Cc1c[nH]c2ccccc12)C(=O)N[C@@H](CCSC)C(=O)N[C@@H](CC(=O)O)C(=O)N[C@@H](Cc1ccccc1)C(N)=O [194 original] (H-KAPSGRMSIVKNLQNLDPSHRISDRDYMGWMDF-NH2)

EC50 (GPR1 [1]): 27.5 nM
EC50 (GPR1 [2]; [4]): 6610 nM
Molecule: CC[C@H](C)[C@H](NC(=O)[C@H](CCCNC(=N)N)NC(=O)[C@H](Cc1c[nH]cn1)NC(=O)[C@H](CO)NC(=O)[C@@H]1CCCN1C(=O)[C@H](CC(=O)O)NC(=O)[C@H](CC(C)C)NC(=O)[C@H](CC(N)=O)NC(=O)[C@H](CCC(N)=O)NC(=O)[C@H](CC(C)C)NC(=O)[C@H](CC(N)=O)NC(=O)[C@H](CCCCN)NC(=O)[C@@H](NC(=O)[C@@H](NC(=O)[C@H](CO)NC(=O)[C@H](CCSC)NC(=O)[C@H](CCCNC(=N)N)NC(=O)CNC(=O)[C@H](CO)NC(=O)[C@@H]1CCCN1C(=O)[C@H](C)NC(=O)[C@@H](N)CCCCN)[C@@H](C)CC)C(C)C)C(=O)N[C@@H](CO)C(=O)N[C@@H](CC(=O)O)C(=O)N[C@@H](CCCNC(=N)N)C(=O)N[C@@H](CC(=O)O)C(=O)N[C@@H](Cc1ccc(O)cc1)C(=O)N[C@@H](CCSC)C(=O)NCC(=O)N[C@@H](Cc1c[nH]c2ccccc12)C(=O)N[C@@H](CCSC)C(=O)N[C@@H](CC(=O)O)C(=O)N[C@@H](Cc1ccccc1)C(N)=O [194 resynthesized] (H-KAPSGRMSIVKNLQNLDPSHRISDRDYMGWMDF-NH2)

EC50 (GPR1 [1]): 0.0132 nM
EC50 (GPR1 [2]; [4]): 39.8 nM
Molecule: CSCC[C@H](NC(=O)[C@@H](N)Cc1c[nH]c2ccccc12)C(=O)N[C@@H](CC(=O)O)C(=O)N[C@@H](Cc1ccccc1)C(N)=O [194.2 (Phoenix)]

EC50 (GPR1 [2]; HTLA cells transiently transfected, overnight stimulation, luciferase, mean ± SEM of 3-4 independent experiments in triplicate, read-out: pEC50, β-arrestin recruitment (Tango), GPR1 (converted)): 2510 nM
Molecule: CC(C)C[C@H](NC(=O)[C@H](CCCNC(=N)N)NC(=O)[C@H](CC(=O)O)NC(=O)[C@H](CC(C)C)NC(=O)[C@@H]1CCCN1C(=O)[C@H](CO)NC(=O)CNC(=O)[C@H](Cc1ccccc1)NC(=O)CNC(=O)[C@H](CO)NC(=O)[C@H](Cc1ccccc1)NC(=O)[C@H](CO)NC(=O)[C@H](CCCNC(=N)N)NC(=O)[C@@H](N)CCCCN)C(=O)N[C@@H](CO)C(=O)N[C@@H](C)C(=O)NCC(=O)N[C@@H](CO)C(=O)N[C@H](C(=O)N[C@@H](CC(=O)O)C(=O)N[C@@H](Cc1c[nH]cn1)C(=O)N[C@@H](CCCCN)C(N)=O)C(C)C [Peptide 141] (H-KRSFSGFGSPLDRLSAGSVDHK-NH2)

Active at: (activity in b-arrestin recruitment assays) [3]: GPR83
Molecule: AADHDVGSELPPEGVLGALLRV [Peptide 146]

Active at: (activity in b-arrestin recruitment assays) [3]: V1a V1b V2 OT
Molecule: CYFQNCPRG (disulfide) [Peptide 44]

Active at: (activity in b-arrestin recruitment assays) [3]: V1a V2 OT
Molecule: CYIQNCPLG (disulfide) [Peptide 45]

Active at: (activity in b-arrestin recruitment assays) [3]: MC4R
Molecule: DEGPYRMEHFRWGSPPKD [Peptide 126]

Molecule: FGGFTGARKSARKLANQ [Peptide 120]
Active at: (activity in b-arrestin recruitment assays) [3]: NOP

Active at: (activity in b-arrestin recruitment assays) [3]: NMUR1
Molecule: FRVDEEFQSPFASQSRGYFLFRPRN [Peptide 159]

Active at: (activity in b-arrestin recruitment assays) [3]: MLNR
Confirmation of known target in Tango [3]: Motilin receptor
Molecule: FVPIFTYGELQRMQEKERNKGQ [Peptide 145]

Active at: (activity in b-arrestin recruitment assays) [3]: NMUR1, NMUR2
Confirmation of known target in Tango [3]: NMUR1
Molecule: ILQRGSGTAAVDFTKKDHTATWGRPFFLFRPRN [Peptide 195]

b-arrestin recruitment assays (Tango) Emax (fold change) (GPR1 [2]; receptor GPR1, mean, SEM and n (2-3)): 14.4 fold change
Molecule: KRSFSGFGSPLDRLSAGSVDHK [141 original]

Active at: (activity in b-arrestin recruitment assays) [3]: MC4R
Molecule: SYSMEHFRWGKPV [Peptide 93]

Active at: (activity in b-arrestin recruitment assays) [3]: NPFF1
Molecule: VPNLPQRF [Peptide 29]

Active at: (activity in b-arrestin recruitment assays) [3]: NPBW1
Molecule: WYKPAAGHSSYSVGRAAGLLSGL [Peptide 152]

Active at: (activity in b-arrestin recruitment assays) [3]: Inactive
Molecule: YGGFL [Peptide 14]

Molecule: YGGFLRKYP [Peptide 46]
Active at: (activity in b-arrestin recruitment assays) [3]: Kappa

Molecule: YGGFMTSEKSQTPLVTLFKNAIIKNAYKKGE [Peptide 182]
Active at: (activity in b-arrestin recruitment assays) [3]: kappa, mu

Active at: (activity in b-arrestin recruitment assays) [3]: MC4R
Molecule: YVMGHFRWDRF [Peptide 74]

B1: CX3CL1 (protein, UniProt P78423 25-397, looked up)
Fractalkine: QHHGVTKCNITCSKMTSKIPVALLIHYQQNQASCGKRAIILETRQHRLFCADPKEQWVKDAMQHLDRQAAALTRNGGTFEKQIGEVKPRTTPAAGGMDESVVLEPEATGESSSLEPTPSSQEAQRALGTSPELPTGVTGSSGTRLPPTPKAQDGGPVGTELFRVPPVSTAATWQSSAPHQPGPSLWAEAKTSEAPSTQDPSTQASTASSPAPEENAPSEGQRVWGQGQSPRPENSLEREEMGPVPAHTDAFQDWGPGSMAHVSVVPVSSEGTPSREPVASGSWTPKAEEPIHATMDPQRLGVLITPVPDAQAATRRQAVGLLAFLGLLFCLGVAMFTYQSLQGCPRKMAGEMAEGLRYIPRSCGSNSYVLVPV
pIC50_value (human GPCRs; receptor CX3CR1 (cx3c1_human, P49238)): 8.9

B2: prokineticin-2 (protein, UniProt Q9HC23 28-129, looked up)
Prokineticin-2: AVITGACDKDSQCGGGMCCAVSIWVKSIRICTPMGKLGDSCHPLTRKNNFGNGRQERRKRKRSKRKKEVPFFGRRMHHTCPCLPGLACLRTSFNRFICLAQK
pIC50_value (human GPCRs; [5]): 8.4
pIC50_value (human GPCRs; [6]): 8.2

B3: prokineticin-1 (protein, UniProt P58294 20-105, looked up)
Prokineticin-1: AVITGACERDVQCGAGTCCAISLWLRGLRMCTPLGREGEECHPGSHKVPFFRKRKHHTCPCLPNLLCSRFPDGRYRCSMDLKNINF
pIC50_value (human GPCRs; [5]): 7.6
pIC50_value (human GPCRs; [6]): 7.3

B4: XCL1 (protein, UniProt P47992 22-114, looked up)
Lymphotactin: VGSEVSDKRTCVSLTTQRLPVSRIKTYTITEGSLRAVIFITKRGLKVCADPQATWVRDVVRSMDRKSNTRNNMIQTKPTGTQQSTNTAVTLTG
pEC50_value (human GPCRs): 7.3

B5: XCL2 (protein, UniProt Q9UBD3 22-114, looked up)
Cytokine SCM-1 beta: VGSEVSHRRTCVSLTTQRLPVSRIKTYTITEGSLRAVIFITKRGLKVCADPQATWVRDVVRSMDRKSNTRNNMIQTKPTGTQQSTNTAVTLTG
pEC50_value (human GPCRs): 7.3
